Results on 4 compounds are retold here after patent US20230218773A1 (priority 2020, published 2023).

Numbered stars: 1 amine (or outer) side, 2 acyl side, 3 side chain; on linkers, the order of the positions; unused ones are H or OH. Square brackets hold non-standard residues; d marks the D form. Peptide text beside a SMILES is read from it. * marks the point of attachment. Dolaproine = CO[C@@H]([C@@H]1CCCN1)[C@@H](C)C(=O)O; Hexanoyl(6-maleimido) = O=C1C=CC(=O)N1CCCCCC(=O)*; Dil = CC[C@H](C)[C@H](NC)[C@@H](CC(=O)O)OC; PABC = O=C(OCc1ccc(N[*:1])cc1)[*:2]; X1 = C[C@@H](N*)[C@@H](O)c1ccccc1; Cit = NC(=O)NCCC[C@H](N)C(=O)O; NMeV = CN[C@H](C(=O)O)C(C)C

Series [1] concerns MIA PaCa2 cells. The series can be described thus: MTT assay, MIA PaCa2 cells. The format is cell-based, human. From the text:
(§1) Cell lines and culture: Human pancreatic cancer cell line MIA PaCa2 cells and primary umbilical vein endothelial cells (HUVEC) were purchased from American Type Culture Collection (ATCC). Human pancreatic cancer cell line PANC1 cells were kindly provided by Dr. Zhengrong Cui (College of Pharmacy, The University of Texas at Austin). Mouse mT4-2D pancreatic cancer cell line, which is derived from a Kras^+/LSL-G12DTp53^+/LSL-R172HPdx1-Cre transgenic model of pancreatic cancer, was kindly provided by Dr. Kyaw Aung (Livestrong Cancer Institutes, Dell Medical School, The University of Texas at Austin). MIA PaCa2 cells, PANC1, and mT4-2D cells were maintained in Dulbecco's […] with high glucose (Corning). Cell culture medium was supplemented with 10% fetal bovine serum (Gibco) and 100 U/mL penicillin-streptomycin (Gibco). HUVEC cells were maintained according to protocol provided by ATCC. All cells were maintained at 37° C. in a humidified atmosphere with 5% carbon dioxide.
(§2) MTT Assay: Cells were seeded in 96 well plates at a density of 5,000 cells/well. Cells were incubated overnight to allow attachment to the bottom of the plates. […] Untreated cells were used as control. After the treatments, 10 μL of MTT (3-(4,5-Dimethylthiazol-2-yl)-2,5-Diphenyltetrazolium Bromide, 5 mg/mL) was added to each well and incubated for an additional 4 hours. Then, the medium was replaced with 150 μL dimethyl sulfoxide (DMSO). After the formazan crystals were completely dissolved, the absorbance at 570 nm was read by a plate reader (Infinite®200 Pro, Tecan). Cell survival rate was calculated as follows: […]
(§3) The IC50 (half maximal inhibitory concentration) was calculated using GraphPad Prism 8.

Series [2] has as its system PANC1 cells. In words: MTT assay, PANC1 cells. The class given is cell-based, human.
Description: as §1, §2, §3
Background: Tetrazolium dyes change colour on reduction, which living cells bring about.

The test system of series [3] is HUVEC cells. The series can be described thus: MTT assay, HUVEC cells. The format is cell-based, human.
Description: as §1
MTT Assay: Cells were seeded in 96 well plates at a density of 5,000 cells/well. […] After the formazan crystals were completely dissolved, the absorbance at 570 nm was read by a plate reader (Infinite®200 Pro, Tecan). Cell survival rate was calculated as follows: […]
as §3

The nature of series [4]: Plasma pharmacokinetics of free and total MMAE in MIA PaCa2 tumor-bearing mice. The class given is in vivo. The conditions noted are these: for plasma concentration of free MMAE: 10 min after single intravenous dose, 0.5 mg/kg MMAE equivalent. The procedure:
(§4) Quantification of MMAE by LC-MS: An Agilent 1260 Infinity liquid chromatography system (G1312B) with an Agilent 6530 Q-TOF mass spectrometer was used to detect the drug MMAE. 5 μL of sample was injected into an Eclipse Plus C18 column (50×2.1 mm, 5 μm) followed by a gradient elution at 0.7 mL/min. […] Electrospray ionization source was used in positive mode. To derive standard curves for MMAE, drug standards were spiked into blank matrix along with internal standard. Samples were then prepared for LC-MS analysis. MMAE was monitored at m/z 740 [M+Na]+, 719 [M+H]+, 371 [M+Na+1-1]^2+ and 360 [M+2H]^2±. Deuterated (D8) MMAE as internal standard was monitored at m/z 748 [M+Na]+, 727 [M+H]+, 375 [M+Na+1-1]^2+ and 364 [M+2H]^2±. The peak area of each drug standard was derived by the peak area of internal standard. The peak area ratios were then plotted as a function of standard concentrations and data points were fitted using linear regression (GraphPad). MMAE concentrations in test samples were quantified using the peak area ratio between MMAE and D8-MMAE and calculated using the standard curves.
(§5) Pharmacokinetics and tissue distribution: Thirty-six mice bearing MIA PaCa2 tumors were equally divided into 4 groups. […] All treatment arms were dosed with an equivalent amount of MMAE at 0.5 mg/kg. At 10 min, 24 h, 48 h, 72 h, 96 h and 168 h post-administration, blood samples were collected from 3 mice in each group through tail vein. Plasma was separated immediately using BD microtainer. At 24 h, 72 h and 168 h after administration, 3 mice from each group were euthanized to collect liver, kidney, and tumor tissue samples. Plasma and tissue samples were stored at −80° C. until further analysis.
(§6) To determine the amount of free MMAE in plasma samples, 1 μL D8-MMAE (250 ng/mL) internal control was added into 10 μL plasma samples and then mixed with 89 μL acetonitrile. The mixture was thoroughly mixed and centrifuged (12,000 rpm, 20 min, 4° C.). The supernatant was collected for LC-MS quantification. To determine free MMAE in mouse tissues, weighed tissues were homogenized with ice-cold PBS containing protease inhibitors (cOmplete™ ULTRA Tablets, Roche) using a tissue homogenizer (Fisher Scientific) to a final concentration of 600 mg/mL. The homogenized suspension was centrifuged at 12,000 rpm for 20 min at 4° C. As an internal control, 1 μL D8-MMAE (250 ng/mL) was added into 20 μL of the supernatant and then mixed with 79 μL acetonitrile. After the mixture was mixed and centrifuged, the supernatant was collected for LC-MS for quantification.
(§7) Briefly, freshly prepared papain (Sigma-Aldrich) was added to plasma and tissue samples at a final concentration of 2 mg/mL, and the mixtures were incubated at 40° C. for 16 hours. The resulting samples were treated as method described above for LC-MS quantification.

Series [5] can be described thus: Maximum tolerated dose in healthy athymic NCr nude mice. The format is in vivo. The procedure: Maximum tolerated dose: All animal experiments were approved and performed under the guidelines by the Institutional Animal Care and Use Committee at. The University of Texas at Austin. […] Mice were injected every 4 days for a total of 4 repeated doses. Body weight and general appearance of each mice were monitored for 10 days after the last dose of injection.

The nature of series [6]: Body weight change at 0.9 mg/kg MMAE equivalent dose. The format is in vivo, mice. The conditions noted are these: multiple dosing. As for the experimental part: FIGS. 15A-15E: Body weight change of mice when dosed with 0.9 mg/kg MMAE equivalent dose. […] Body weights of mice during and after treatments were monitored. (n=5). Data shown as mean±standard deviation. Mice in MMAE group (B) were dosed with 0.9 mg/kg MMAE at Day 0 and 4.

The test system of series [7] is MIA PaCa2 xenografts. The series can be described thus: In vivo antitumor efficacy, MIA PaCa2 xenografts. The arrangement: species or system mice. The conditions noted are these: every 4 days, 4 doses; for tumor growth: 0.5 mg/kg MMAE equivalent. As for the experimental part:
Tumor-bearing mouse models: Eight to ten week old athymic female NCr nude mice and C57BL/6 mice (Taconic) were used to establish xenograft mouse model and syngeneic mouse model, respectively. […] The cell suspension was then gently mixed with equal volume of Matrigel® (Corning). Subsequently, 100 μL of each mixed cell suspension (MIA PaCa2 and mT4-2D) was subcutaneously inoculated into both flanks of NCr nude mice and C57BL/6 mice, respectively. After the tumors were palpable, tumor volumes were measured two times a week. The tumor volume was calculated as (1/2×length×[…]).
In vivo antitumor efficacy: Mice bearing MIA PaCa2 xenografts and syngeneic mT4-2D C57BL/6 mice were randomized when the tumor sizes were ˜150 mm^3, respectively. […] Tumor sizes were measured by a digital caliper twice a week starting from Day 0. Mice were euthanized when either tumor volume exceeded 1500 mm^3.
Statistical analysis: All of the experiments were repeated at least three times. Statistical significance was calculated using two-way ANOVA followed by Tukey's test. Survival curve was analyzed by log-rank test using GraphPad Prism 8 software.

A short description of series [8]: Tissue distribution of free and total MMAE in MIA PaCa2 tumor-bearing mice. The class given is in vivo. The conditions noted are these: 24 hours after single dose. The procedure:
as §4, §5, §6, §7

For series [9], the system named is soft-tissue sarcoma. The conditions noted are these: minimal cardiac toxicity; cited from earlier work.
Series [10] deals with MIA PaCa2 cells. The series can be described thus: Uptake of fluorescein-albumin conjugate with macropinocytosis inhibitor, MIA PaCa2 cells. The format is cell-based, human. The conditions noted are these: EIPA 50 μM and 75 μM, flow cytometer. As for the experimental part: (§8) FIGS. 10A-10B: (A) MIA PaCa2 cells and (B) PANC1 cells were seeded in 12-well plates at 5×10^5 cells/well and allowed to attach overnight. Cells were first starved in serum free medium for 2 hours followed by treatment with macropinocytosis inhibitor (EIPA: 5-(N-Ethyl-N-isopropyl)amiloride) for 30 min. […] Then cells were detached and analyzed by flow cytometer (Accuri). […] (*p<0.05, **p<0.01)
On the technique in general: Flow cytometry measures light scatter and fluorescence of single cells or particles in a stream.

Series [11] relates to PANC1 cells. The series can be described thus: Uptake of fluorescein-albumin conjugate with macropinocytosis inhibitor, PANC1 cells. The class given is cell-based, human. The conditions noted are these: EIPA 50 μM and 75 μM, flow cytometer. As for the experimental part:
as §8

Setting [12] is: total MMAE in plasma, 0.5 mg/kg i.v.

As a reminder, the IC50 is the midpoint of a concentration-inhibition curve. On to `CC[C@H](C)[C@@H]([C@@H](CC(=O)N1CCC[C@H]1[C@H](OC)[C@@H](C)C(=O)N[C@H](C)[C@@H](O)c1ccccc1)OC)N(C)C(=O)[C@@H](NC(=O)[C@@H](NC)C(C)C)C(C)C` [MMAE, monomethyl auristatin E] (H-[NMeV]V[Dil][Dolaproine]-X1), for which the IC50 in [1] (24 hours) is 0.54 nM; in [1] (48 hours), 0.46 nM; in series [1] (72 hours), 0.5 nM; in series [2] (24 hours) it was 0.52 nM; in [2] (48 hours), 0.21 nM; in [2] (72 hours), 0.21 nM. The IC50 came to 0.067 nM in [3] (24 hours) and 0.012 nM in series [3] (48 hours). For the same compound, in series [4], the “plasma concentration of free MMAE” value worked out at 86.03 ± 17.78 ng/mL. For the same compound, the maximum tolerated dose result in [5] (MMAE equivalent dose, every 4 days, 4 doses, body weight change within 20%) is reported as “approximately 0.5 mg/kg”. Moreover, the “loss of body weight” value in series [6] is given as > 20%. Further, the “tumor growth” value in [7] is “slowed down tumor growth”.
In general, MRT refers to the average time that molecules of a dose stay in the body. As for `CC[C@H](C)[C@@H]([C@@H](CC(=O)N1CCC[C@H]1[C@H](OC)[C@@H](C)C(=O)N[C@H](C)[C@@H](O)c1ccccc1)OC)N(C)C(=O)[C@@H](NC(=O)[C@H](C(C)C)N(C)C(=O)OCc1ccc(NC(=O)[C@H](CCCNC(N)=O)NC(=O)[C@@H](NC(=O)CCCCCN2C(=O)C=CC2=O)C(C)C)cc1)C(C)C` [MMAE-MAL, mc-vc-pab-MMAE] ({Hexanoyl(6-maleimido)}-V[Cit][PABC][NMeV]V[Dil][Dolaproine]-X1), the “plasma concentration of free MMAE” value in series [4] was 669.67 ± 78.94 ng/mL. Further, the “premature release of MMAE in plasma compared to the ALDC1 group” value in series [4] (free MMAE, 10 min after dosing, 0.5 mg/kg) is on record as 13 fold. Further, in series [4] (setting [12]), the “AUC 0-∞” value was 141.1938 µg·h/mL, the “AUMC 0-∞” value is 2827552.1 ng/ml*h^2, the Cl was 3.54E−06 (mg/kg)/(ng/ml)/h and the MRT is 20.02 h. This compound also registered a T1/2 in [4] (setting [12]) of 27.82 h. In series [4] (total MMAE in plasma, time 0 to 168 hours, 0.5 mg/kg i.v.), the “AUC 0-t” value was 139.9281 µg·h/mL. Also, the “amount of free MMAE in tumor compared to the MMAE group” value in [8] is recorded as “about 2 fold”. In addition, in [8] (0.5 mg/kg MMAE), the “accumulation of free MMAE in tumor” value stood at 2.2 % ID/g, the “total MMAE in liver” value worked out at 0.3 % ID/g and the “total MMAE in tumor” value was found to be 3.3 % ID/g. Moreover, the “free MMAE in the liver and kidney” value in series [8] (no statistical difference to MMAE group) is listed as “low levels”. Further, in series [5] (percent weight loss from original weight), the “maximum tolerated dose compared with ALDC1” value is “lower maximum tolerated dose”. The “loss of body weight” value in series [6] is given as ~20%. Also, the “tumor growth” value in [7] is on record as “significantly delayed”. The “median survival of tumor-bearing mice” value in [7] (0.5 mg/kg equivalent to MMAE) amounted to 81 days.
On to `COc1cccc2c1C(=O)c1c(O)c3c(c(O)c1C2=O)C[C@@](O)(/C(CO)=N/NC(=O)CCCCCN1C(=O)C=CC1=O)C[C@@H]3O[C@H]1C[C@H](N)[C@H](O)[C@H](C)O1` [aldoxorubicin], for which, in series [9], the “safely administered dose compared to doxorubicin” value was 3.47 fold.
For the compound `CCN(c1nc(N)c(C(=O)N=C(N)N)nc1Cl)C(C)C` [EIPA, 5-(N-Ethyl-N-isopropyl)amiloride], the “inhibition of uptake of fluorescein-albumin conjugate (ALDC1)” value in series [10] and in series [11] was “significantly inhibit” each time.
